# Laboratory results from publication PMC11480233, “Structural insights into the Caprin-2 HR1 domain in canonical Wnt signaling” (The Journal of Biological Chemistry, 2024).
# T1: hCap2_HR1 (HR1 domain of human Caprin-2) (Homo sapiens, UniProt Q6IMN6, R200E/R201E)
# T1 construct: gene CAPRIN2; HR1 domain, aa S102-K351, E. coli BL21-CodonPlus-RIL, modified pET-28a with His tag and TEV site; His tag kept for lipid strip
# T1 sequence (Q6IMN6 102-351 R200E/R201E): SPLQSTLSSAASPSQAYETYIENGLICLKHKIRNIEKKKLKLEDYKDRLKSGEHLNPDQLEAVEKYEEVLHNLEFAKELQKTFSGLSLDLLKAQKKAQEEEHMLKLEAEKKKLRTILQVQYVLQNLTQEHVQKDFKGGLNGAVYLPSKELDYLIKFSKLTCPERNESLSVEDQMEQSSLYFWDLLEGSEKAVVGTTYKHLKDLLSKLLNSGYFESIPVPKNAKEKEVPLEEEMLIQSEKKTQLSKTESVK
# T2: hCap2_HR1 (HR1 domain of human Caprin-2) (Homo sapiens, UniProt Q6IMN6)
# T2 construct: gene CAPRIN2; HR1 domain, aa S102-K351, E. coli BL21-CodonPlus-RIL, modified pET-28a with His tag and TEV site; His tag kept for lipid strip
# T2 sequence (Q6IMN6 102-351): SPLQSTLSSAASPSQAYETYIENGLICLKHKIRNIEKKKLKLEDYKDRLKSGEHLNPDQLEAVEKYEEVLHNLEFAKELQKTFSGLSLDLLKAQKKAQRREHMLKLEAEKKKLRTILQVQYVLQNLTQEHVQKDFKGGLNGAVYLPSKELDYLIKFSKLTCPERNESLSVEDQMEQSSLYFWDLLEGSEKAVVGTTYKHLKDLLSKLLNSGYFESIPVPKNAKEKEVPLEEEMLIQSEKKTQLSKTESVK
# Tests used:
# [1] = molecular target: T1, hCap2_HR1 (HR1 domain of human Caprin-2); assay: biolayer interferometry (Octet Red96); format: binding; details: labelled compound; biotinylated PI4P immobilised on streptavidin sensors; 20 mM Tris pH 7.5, 150 mM NaCl, 0.2 mM DTT, 0.05% Tween-20, 0.2 mg/ml BSA
# [2] = molecular target: T2, hCap2_HR1 (HR1 domain of human Caprin-2); assay: biolayer interferometry (Octet Red96); format: binding; details: labelled compound; biotinylated PI4P immobilised on streptavidin sensors; 20 mM Tris pH 7.5, 150 mM NaCl, 0.2 mM DTT, 0.05% Tween-20, 0.2 mg/ml BSA
# [3] = molecular target: the molecule itself; assay: SEC; Superdex 200 with a calibration curve; estimated MW 66.45 kDa against theoretical 29.2 kDa
Kd [1] [µM],Kd [2] [µM],Molecule,stoichiometry N [3]
152,2,biotinylated PI4P,
,,"HR1 domain of human Caprin-2 (aa S102-K351) (domain or fragment, UniProt Q6IMN6 102-351, looked up, Caprin-2, human, HR1 domain construct, residues S102-K351, cloned from full-length human Caprin-2; Modified pET-28a vector with a TEV site in place of the thrombin site; A SeMet triple mutant I217M/L251M/L301M of the same limits was used for phasing; also called hCap2_HR1; Cap2_HR1) SPLQSTLSSAASPSQAYETYIENGLICLKHKIRNIEKKKLKLEDYKDRLKSGEHLNPDQLEAVEKYEEVLHNLEFAKELQKTFSGLSLDLLKAQKKAQRREHMLKLEAEKKKLRTILQVQYVLQNLTQEHVQKDFKGGLNGAVYLPSKELDYLIKFSKLTCPERNESLSVEDQMEQSSLYFWDLLEGSEKAVVGTTYKHLKDLLSKLLNSGYFESIPVPKNAKEKEVPLEEEMLIQSEKKTQLSKTESVK",2
